Results: patent publication US11401279B2, “Pyrido[3,2-d]pyrimidine compounds as immunomodulators” (Incyte Corporation, priority 2019, dated 2022)
Read-outs that look alike come from different tables or passages of the source.

What was measured:
PD-1/PD-L1 = PD-1/PD-L1 (Homo sapiens (Human), UniProt Q9NZQ7); assay: Homogeneous Time-Resolved Fluorescence (HTRF) PD-1/PD-L1 binding assay; conditions: recombinant human PD-1 and PD-L1
Protocol: The assays were conducted in a standard black 384-well polystyrene plate with a final volume of 20 μL. Inhibitors were first serially diluted in DMSO and then added to the plate wells before the addition of other reaction components. The final concentration of DMSO in the assay was 1%. The assays were carried out at 25° C. in the PBS buffer (pH 7.4) with 0.05% Tween-20 and 0.1% BSA. Recombinant human PD-L1 protein (19-238) with a His-tag at the C-terminus was purchased from AcroBiosystems (PD1-H5229). Recombinant human PD-1 protein (25-167) with Fc tag at the C-terminus was also purchased from AcroBiosystems (PD1-H5257). PD-L1 and PD-1 proteins were diluted in the assay buffer and 10 μL was added to the plate well. Plates were centrifuged and proteins were preincubated with inhibitors for 40 minutes. The incubation was followed by the addition of 10 μL of HTRF detection buffer supplemented with Europium cryptate-labeled anti-human IgG (PerkinElmer-AD0212) specific for Fc and anti-His antibody conjugated to SureLight®-Allophycocyanin (APC, PerkinElmer-AD0059H). After centrifugation, the plate was incubated at 25° C. for 60 min. before reading on a PHERAstar FS plate reader (665 nm/620 nm ratio). Final concentrations in the assay were—3 nM PD1, 10 nM PD-L1, 1 nM europium anti-human IgG and 20 nM anti-His-Allophycocyanin. IC50 determination was performed by fitting the curve of percent control activity versus the log of the inhibitor concentration using the GraphPad Prism 5.0 software.

[1] = system: U2OS/PD-L1 cells and Jurkat-PD-1-SHP cells; assay: Src homology region 2 domain-containing phosphatase (SHP) assay; format: cell-based; conditions: PathHunter chemiluminescence, 2 hours
Protocol: U2OS/PD-L1 cells (DiscoveRx Corporation) were maintained in McCoy's 5A medium with addition of 10% FBS, 0.25 μg/mL Puromycin. After removing the culture media, the cell medium was replaced with assay medium (RPMI1640 medium with 1% FBS). The U2OS/PD-L1 cells were then added in 384-well black clear bottom assay plate (CELLCOAT® Tissue Culture Plates, Greiner Bio-One) at 5000 cells per well in 20 μL assay medium. Test compounds were prepared by serial dilution in DMSO and 125 nL compound were first transferred to the 384 REMP plate well (Thermofisher) by ECHO liquid handler (Labcyte) followed with addition of 27.5 μL assay medium. 5 µL/well compounds in the assay medium were transferred to the cell plate with 0.05% DMSO in the final assay at 0.25 μM. Jurkat-PD-1-SHP cells (DiscoveRx Corporation) were cultured in RPMI1640 medium supplemented with 10% FBS, 250 μg/mL Hygromycin B, 500 μg/mL G418. After the replacement of culture media with assay medium, 5,000 Jurkat-PD-1-SHP cells in 20 μL were dispensed into each well. The assay plate was incubated at 37° C., 5% CO2 for 2 hours before 2.5 μL PathHunter reagent 1 (DiscoveRx Corporation) were added to each well. The assay plate was shaken for 1 min at 350 rpm in the dark followed with addition of 10 μL PathHunter reagent 2 (DiscoveRx Corporation). Chemiluminescent signal was recorded with TopCount reader (Perkin Elmer) after incubation at room temperature for 1 hour. Wells with DMSO were served as the positive controls and wells containing no cells were used as negative controls. IC50 determination was performed by fitting the curve of percentage of control activity versus the log of the compound concentration using the GraphPad Prism 6.0 software.

[2] = system: PD-L1 aAPC/CHO-K1 cells and Jurkat-PD-1-NFAT effector cells; assay: Nuclear factor of activated T-cells (NFAT) assay; format: cell-based; conditions: luminescence, 24 hours
Protocol: PD-L1 aAPC/CHO-Klcells (Promega) were maintained in F-12 medium with addition of 10% FBS, 200 μg/mL Hygromycin B, 250 μg/mL Geneticin (G418). Jurkat-PD-1-NFAT effector cells (Promega) were cultured in RPMI 1640 medium supplemented with 10% FBS, 100 μg/mL Hygromycin B, 500 μg/mL G418. The culture media of PD-L1 aAPC/CHO-K1 cells were first replaced with assay medium (RPMI1640 medium with 1% FBS). The PD-L1 aAPC/CHO-Klcells were then added in a white 384-well white clear bottom assay plate (CELLCOAT® Tissue Culture Plates, Greiner Bio-One) at 8000 per well in 10 μL assay medium. Test compounds were prepared by serial dilution in DMSO and 0.8 μL test compounds in DMSO were first transferred to the 384 REMP plate well (Thermofisher) by PlateMate Plus (Thermofisher) followed with addition of 50 μL plating medium. 5 μL compounds in the assay medium were transferred to the cells with 0.4% DMSO in the final assay at 2 μM. After removing the culture media, 10,000 Jurkat-PD-1-NFAT effector cells in 5 μL assay medium was dispensed into each well. The assay plate was incubated at 37° C., 5% CO2 for 24 hours. After the assay plate was equilibrated to room temp for 15 minutes, 20 μL/well of Bio-Glo™ reagent (Promega) were added. After 8 minutes incubation at room temperature, luminescence was read at with Pherastar microplate reader (BMG Labtech). The fold of induction (FOI) was calculated based on the ratio of luminescence normalized to the DMSO wells within each assay plate. The maximum percentage of induction was reported based on the ratio between the highest FOI of each compound and the maximum FOI of control compound within each assay plate. Wells with DMSO were served as the negative controls and wells containing control compound with the highest FOI were used as positive controls. EC50 determination was performed by fitting the curve of percent control activity versus the log of the compound concentration using the GraphPad Prism 6.0 software.

PD-L1 = PD-L1 (Homo sapiens (Human), UniProt Q9NZQ7); assay: PD-L1 whole blood internalization assay; format: cell-based; conditions: PD-L1 internalization in human whole blood, CD14+ cells, interferon γ, 24 hour
Chain of PD-L1 (Q9NZQ7 19-290): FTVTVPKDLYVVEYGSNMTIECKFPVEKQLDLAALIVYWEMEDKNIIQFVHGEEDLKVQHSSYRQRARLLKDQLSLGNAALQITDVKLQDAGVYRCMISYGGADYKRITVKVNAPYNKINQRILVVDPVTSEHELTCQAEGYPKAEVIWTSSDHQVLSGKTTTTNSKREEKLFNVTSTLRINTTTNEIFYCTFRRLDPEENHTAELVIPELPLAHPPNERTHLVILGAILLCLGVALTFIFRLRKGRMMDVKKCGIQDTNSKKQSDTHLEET
Protocol: To determine PD-L1 internalization in human whole blood, normal human blood (Biological Specialty Corp, Colmar. Pa.) was incubated in the presence or absence of a concentration range of test compounds and 1 ng/mL human interferon γ (R&D Systems Inc. Minn. […] Blood was then stained with PD-L1 (MIH1, eBioscience; or BD Biosciences San Jose, Calif.), CD14 (Life Technologies, Carlsbad, Calif.) for 30 minutes in the dark at room temperature. Whole Blood/red cells were lysed/fixed (lysis buffer BD Biosciences) for 5 minutes at 37° C. in the dark and then centrifuged at 1600 RPM for 5 minutes. Cells were resuspended in Stain Buffer (BD Bioscience, San Jose, Calif.) and transferred into 96 well round bottom plates (Corning). Cells were gated on CD14+(BD Biosciences) and PD-L1 expression determined by mean fluorescence intensity (MFI) (BD LSRFortessa™ X-20). IC50 determination was performed by fitting the curve of compound percent inhibition versus the log of the compound concentration using the GraphPad Prism 7.0 software.

[3] = In vivo pharmacokinetics in rats; design: species or system Sprague Dawley rats; conditions: rat, cassette dosing; for Vd: read-out: Vss; for Cmax / AUC(0-inf) / F: 3.0 mg/kg PO
Protocol: For in vivo pharmacokinetic experiments, test compounds were administered to male Sprague Dawley rats or male and female Cynomolgus monkeys intravenously or via oral gavage. For intravenous (IV) dosing, test compounds were dosed at 0.5 to 1 mg/kg using a formulation of 10% dimethylacetamide (DMAC) in acidified saline via IV bolus for rat and 5 min or 10 min IV infusion for monkey. For oral (PO) dosing, test compounds were dosed at 1.0 to 3.0 mg/kg using 5% DMAC in 0.5% methylcellulose in citrate buffer (pH 3.5). Blood samples were collected at predose and various time points up to 24 hours postdose. All blood samples were collected using EDTA as the anticoagulant and centrifuged to obtain plasma samples. The plasma concentrations of test compounds were determined by LC-MS methods. The measured plasma concentrations were used to calculate PK parameters by standard noncompartmental methods using Phoenix® WinNonlin software program (version 7.0, Pharsight Corporation).
In rats and monkeys, cassette dosing of test compounds were conducted to obtain preliminary PK parameters.

[4] = male, Sprague-Dawley, plasma, 1.0 mg/kg IV
[5] = male, Sprague-Dawley, plasma, read-out: AUC0-inf

Chain of PD-1/PD-L1 (Q9NZQ7 19-238): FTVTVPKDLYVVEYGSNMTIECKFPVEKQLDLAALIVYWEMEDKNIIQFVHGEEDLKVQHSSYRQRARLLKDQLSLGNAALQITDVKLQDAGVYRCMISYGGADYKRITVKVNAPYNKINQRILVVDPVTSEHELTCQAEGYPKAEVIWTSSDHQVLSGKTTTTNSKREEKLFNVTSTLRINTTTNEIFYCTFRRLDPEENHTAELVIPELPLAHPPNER

Row | IC50 (PD-1/PD-L1) | IC50 ([1]; Homo sapiens, U2OS) | IC50 (PD-L1) | clearance [3, 4] | half-life [3, 4] | Vd [3, 4] | Cmax ([3]; male, Sprague-Dawley, plasma) | AUC(0-inf) [3, 5] | F [3] | IC50 [1] | Cl ([3]; 1.0 mg/kg IV) | Vss ([3]; 1.0 mg/kg IV) | t1/2 ([3]; 1.0 mg/kg IV) | AUC(0-inf) [3] | Cmax [3] | SMILES | EC50 ([2]; Cricetulus griseus, CHO-K1) | EC50 [2]
1 | 8.3 nM | 6.9 nM | 97 nM | 16.5 mL/min/kg | 3.47 h | 2.45 L/kg | 234 nM | 1.2 µM·h | 28% | – | – | – | – | – | – | CN1CCc2c(nc(C(=O)Nc3cccc(-c4cccc(NC(=O)c5nc6c(n5C)CCN(CC57CCC(C(=O)O)(CC5)C7)C6)c4Cl)c3Cl)n2C)C1 [Example 84] | 47 nM | –
2 | 2.4 nM | 4.9 nM | 149 nM | 19 mL/min/kg | 1.9 h | 1.96 L/kg | 398 nM | 1.5 µM·h | 39% | – | – | – | – | – | – | Cc1c(NC(=O)c2nc3c(n2C)CCN(CC24CCC(C(=O)O)(CC2)C4)C3)cccc1-c1cccc(NC(=O)c2nc3c(n2C)CCN(C)C3)c1Cl [Example 102] | 76 nM | –
3 | 1.5 nM | 5.7 nM | 185 nM | – | – | – | – | – | – | – | – | – | – | – | – | CC(C)N1CCc2c(nc(C(=O)Nc3cccc(-c4cccc(NC(=O)c5nc6c(n5C)CCN(CC57CCC(C(=O)O)(CC5)C7)C6)c4Cl)c3Cl)n2C)C1 [Example 177, reference compound] | 31 nM | –
4 | 1.9 nM | 13 nM | 587 nM | – | – | – | – | – | – | – | – | – | – | – | – | Cn1c(C(=O)Nc2cccc(-c3cccc(NC(=O)c4nc5c(n4C)CCN(C4CCC4)C5)c3Cl)c2Cl)nc2c1CCN(CC13CCC(C(=O)O)(CC1)C3)C2 [Example 178, reference compound] | 82 nM | –
5 | 1.5 nM | – | 166 nM | – | – | – | – | – | 38% | 4.4 nM | 26.2 mL/min/kg | 2.48 L/kg | 2.21 h | 0.956 µM·h | 231 nM | Cn1c(C(=O)Nc2cccc(-c3cccc(NC(=O)c4nc5c(n4C)CCN(CC46CCC(C(=O)O)(CC4)C6)C5)c3Cl)c2Cl)nc2c1CCN(CCO)C2 [Example 180] | – | 30 nM
6 | 1.6 nM | 6.1 nM | 161 nM | – | – | – | – | – | – | – | – | – | – | – | – | C[C@H](O)CN1CCc2c(nc(C(=O)Nc3cccc(-c4cccc(NC(=O)c5nc6c(n5C)CCN(CC57CCC(C(=O)O)(CC5)C7)C6)c4Cl)c3Cl)n2C)C1 [Example 181, reference compound] | 41 nM | –
7 | 1.7 nM | 4.4 nM | 92 nM | – | – | – | – | – | – | – | – | – | – | – | – | C[C@@H](O)CN1CCc2c(nc(C(=O)Nc3cccc(-c4cccc(NC(=O)c5nc6c(n5C)CCN(CC57CCC(C(=O)O)(CC5)C7)C6)c4Cl)c3Cl)n2C)C1 [Example 182, reference compound] | 30 nM | –
8 | 1.8 nM | 5.6 nM | 49 nM | – | – | – | – | – | – | – | – | – | – | – | – | Cn1c(C(=O)Nc2cccc(-c3cccc(NC(=O)c4nc5c(n4C)CCN(C4CCC(O)CC4)C5)c3Cl)c2Cl)nc2c1CCN(CC13CCC(C(=O)O)(CC1)C3)C2 (centres unmarked) [Example 183, reference compound] | 18 nM | –
9 | 2.3 nM | 4.9 nM | 62 nM | 63.7 mL/min/kg | – | 4.45 L/kg | 57 nM | 0.398 µM·h | 8% | – | – | – | – | – | – | Cc1c(-c2nc3cc(CN4CC[C@@H](O)C4)cc(C#N)c3o2)cccc1-c1cccc(NC(=O)c2nc3c(n2C)CCN(CCC2CCC(C(=O)O)CC2)C3)c1Cl (some centres unmarked) [Example 265] | 15 nM | –
10 | 2.3 nM | 7.8 nM | 121 nM | – | 3.28 h | 2.22 L/kg | 108 nM | 0.687 µM·h | 12% | – | – | – | – | – | – | Cc1c(-c2nc3cc(CN4CC[C@@H](O)C4)cc(C#N)c3o2)cccc1-c1cccc(NC(=O)c2nc3c(n2C)CCN(CC24CCC(C(=O)O)(CC2)C4)C3)c1Cl [Example 267] | 39 nM | –
